Laboratory results: ChEMBL document CHEMBL5241069, “A key review on oxadiazole analogs as potential methicillin-resistant Staphylococcus aureus (MRSA) activity: Structure-activity relationship studies” (Eur J Med Chem, 2021)
Values after ≈ are worked out from the molar mass of the structure shown.

What was measured:
[1] = tested on: Staphylococcus aureus; experiment: Antibacterial activity against methicillin resistant Staphylococcus aureus ATCC 43300 assessed as inhibition of bacterial growth incubated for 24 to 48 hrs by spectrophotometric analysis; format: functional; conditions: time 24-48 hrs
[2] = tested on: Staphylococcus aureus; experiment: Antibacterial activity against methicillin resistant Staphylococcus aureus assessed as inhibition zone by CLSI protocol based agar disc diffusion method; format: functional
[3] = Cytotoxicity against human HepG2 cells assessed as inhibition of cell growth incubated for 24 hrs by WST-1 assay; format: toxicity, cell-based; conditions: read-out: LD50
[4] = tested on: Staphylococcus aureus; experiment: Antibacterial activity against methicillin resistant Staphylococcus aureus USA300 assessed as inhibition of bacterial growth incubated for 16 to 20 hrs by CLSI protocol based Mueller-Hinton broth method; format: functional; conditions: time 16-20 hrs
[5] = tested on: Staphylococcus aureus; experiment: Antibacterial activity against methicillin resistant Staphylococcus aureus MW2 assessed as inhibition of bacterial growth incubated for 16 to 20 hrs by CLSI protocol based Mueller-Hinton broth method; format: functional; conditions: time 16-20 hrs
[6] = tested on: Staphylococcus aureus; experiment: Antibacterial activity methicillin resistant Staphylococcus aureus NRS384 (USA 300) assessed as inhibition of bacterial growth by broth microdilution method; format: functional
[7] = Half-life in rat at 25 mg/kg, po; format: ADME, organism-based; conditions: in vivo
[8] = tested on: Staphylococcus aureus; experiment: Antibacterial activity methicillin resistant Staphylococcus aureus NRS 194 assessed as inhibition of bacterial growth by broth microdilution method; format: functional
[9] = tested on: Staphylococcus aureus; experiment: Antibacterial activity methicillin resistant Staphylococcus aureus NRS 387 (USA 800) assessed as inhibition of bacterial growth by broth microdilution method; format: functional
[10] = tested on: Staphylococcus aureus; experiment: Antibacterial activity methicillin resistant Staphylococcus aureus NRS 382 (USA 100) assessed as inhibition of bacterial growth by broth microdilution method; format: functional
[11] = tested on: Staphylococcus aureus; experiment: Antibiofilm activity against methicillin resistant Staphylococcus aureus assessed as reduction in biofilm formation at 2 times of MIC by microtiter plate biofilm formation assay; format: functional; design: scale not given: the % may be the effect or the level left
[12] = tested on: Staphylococcus aureus; experiment: Antibacterial activity methicillin resistant Staphylococcus aureus NRS 108 assessed as inhibition of bacterial growth by broth microdilution method; format: functional
[13] = tested on: Staphylococcus aureus; experiment: Antibacterial activity methicillin resistant Staphylococcus aureus NRS 484 (USA 1100) assessed as inhibition of bacterial growth by broth microdilution method; format: functional
[14] = tested on: Staphylococcus aureus; experiment: Antibacterial activity methicillin resistant Staphylococcus aureus NRS 385 (USA 500) assessed as inhibition of bacterial growth by broth microdilution method; format: functional
[15] = tested on: Staphylococcus aureus; experiment: Antibacterial activity methicillin resistant Staphylococcus aureus NRS 386 (USA 700) assessed as inhibition of bacterial growth by broth microdilution method; format: functional
[16] = tested on: Staphylococcus aureus; experiment: Antibacterial activity methicillin resistant Staphylococcus aureus 2658 RCMB assessed as inhibition of bacterial growth by broth microdilution method; format: functional
[17] = tested on: Staphylococcus aureus; experiment: Antibacterial activity methicillin resistant Staphylococcus aureus NRS123 (USA 400) assessed as inhibition of bacterial growth by broth microdilution method; format: functional
[18] = tested on: Staphylococcus aureus; experiment: Antibacterial activity methicillin resistant Staphylococcus aureus NRS 119 assessed as inhibition of bacterial growth by broth microdilution method; format: functional; conditions: NRS119
[19] = tested on: Staphylococcus aureus; experiment: Antibacterial activity methicillin resistant Staphylococcus aureus NRS 383 (USA 200) assessed as inhibition of bacterial growth by broth microdilution method; format: functional
[20] = tested on: Staphylococcus aureus; experiment: Antibacterial activity methicillin resistant Staphylococcus aureus NRS 483 (USA 1000) assessed as inhibition of bacterial growth by broth microdilution method; format: functional
[21] = tested on: Staphylococcus aureus; experiment: Antimicrobial activity against methicillin resistant Staphylococcus aureus ATCC 25923 assessed as inhibition of bacterial growth by agar diffusion cup plate method; format: functional
[22] = tested on: Staphylococcus aureus; experiment: Antimicrobial activity against methicillin resistant Staphylococcus aureus 3 assessed as inhibition of bacterial growth incubated for 16 to 20 hrs by CLSI protocol based Muller-Hinton broth method; format: functional; conditions: time 16-20 hrs
[23] = tested on: Staphylococcus aureus; experiment: Antimicrobial activity against methicillin resistant Staphylococcus aureus 1 assessed as inhibition of bacterial growth incubated for 16 to 20 hrs by CLSI protocol based Muller-Hinton broth method; format: functional; conditions: time 16-20 hrs
[24] = tested on: Staphylococcus aureus; experiment: Antimicrobial activity against methicillin resistant Staphylococcus aureus 2 assessed as inhibition of bacterial growth incubated for 16 to 20 hrs by CLSI protocol based Muller-Hinton broth method; format: functional; conditions: time 16-20 hrs
[25] = tested on: Staphylococcus aureus; experiment: Antibacterial activity against methicillin resistant Staphylococcus aureus ATCC 33592 incubated for 24 hrs by Mueller-Hinton broth based assay; format: functional
[26] = tested on: Staphylococcus aureus; experiment: Potency index, ratio of vancomycin MIC to test compound MIC for antibacterial activity against methicillin resistant Staphylococcus aureus ATCC 43866 assessed as inhibition of biofilm formation incubated for 18 to 24 hrs by tissue culture plate method; format: functional; conditions: time 18-24 hrs
[27] = tested on: Staphylococcus aureus; experiment: Antibiofilm activity against methicillin resistant Staphylococcus aureus ATCC 43866 assessed as inhibition of biofilm formation incubated for 18 to 24 hrs by tissue culture plate method; format: functional; conditions: time 18-24 hrs
[28] = tested on: Staphylococcus aureus; experiment: Antimicrobial activity against methicillin resistant Staphylococcus aureus ATCC 43300 assessed as inhibition of bacterial growth incubated for 18 to 24 hrs by broth microdilution method; format: functional; conditions: time 18-24 hrs
[29] = tested on: Staphylococcus aureus; experiment: Antimicrobial activity against methicillin resistant Staphylococcus aureus USA300 assessed as inhibition of bacterial growth incubated for 16 to 20 hrs by CLSI protocol based method; format: functional; conditions: time 16-20 hrs
[30] = tested on: Staphylococcus aureus; experiment: Antimicrobial activity against Staphylococcus aureus Newman assessed as inhibition of bacterial growth incubated for 16 to 20 hrs by CLSI protocol based method; format: functional; conditions: time 16-20 hrs
[31] = tested on: Staphylococcus aureus; experiment: Antimicrobial activity against methicillin resistant Staphylococcus aureus A252 assessed as inhibition of bacterial growth incubated for 16 to 20 hrs by CLSI protocol based method; format: functional; conditions: time 16-20 hrs
[32] = tested on: Staphylococcus aureus; experiment: Antibacterial activity against methicillin resistant Staphylococcus aureus incubated for 24 hrs by broth microdilution method; format: functional
[33] = tested on: Staphylococcus aureus; experiment: Antimicrobial activity against methicillin resistant Staphylococcus aureus 2658 RCMB assessed as inhibition of bacterial growth incubated for 20 hrs by CLSI protocol based broth microdilution method; format: functional

Compound O=C(/C=C/c1ccc([N+](=O)[O-])cc1)N1N=C(c2ccncc2)OC1c1cn(-c2ccccc2)nc1-c1ccc(F)cc1 (stereo not drawn) has an MIC [1] of 12.5 µg/mL (≈ 22.3 µM).
With O=P(Oc1ccccc1)(Oc1ccccc1)C(Nc1nnc(-c2cccc(Br)n2)o1)c1ccc(F)c(Cl)c1 (stereo not drawn) the “inhibition zone (IZ)” value [2] was 17 mm.
For O=C(Nc1nnc(-c2ccc3c(c2)CCCC3)o1)C1CC1, the CC50 at 24 h [3] was > 32 µg/mL, the MBC [4] was 16 µg/mL (≈ 56.5 µM) and the MBC [5] was 16 µg/mL (≈ 56.5 µM).
With Cc1nc(-c2ccc(C(C)(C)C)cc2)sc1-c1nnc(N2CC(O)C2)o1 the MIC [6] was 4 µg/mL (≈ 10.8 µM), the half-life [7] was 5.5 h and the MIC [8] was 4 µg/mL (≈ 10.8 µM). It also gave an MIC [9] of 4 µg/mL (≈ 10.8 µM), an MIC [10] of 4 µg/mL (≈ 10.8 µM) and an Activity [11] of 41%. For the same compound, the MIC [12] was 4 µg/mL (≈ 10.8 µM), the MIC [13] was 4 µg/mL (≈ 10.8 µM) and the MIC [14] was 4 µg/mL (≈ 10.8 µM). The MIC [15] was 4 µg/mL (≈ 10.8 µM), the MIC [16] was 3.12 µg/mL (≈ 8.42 µM) and the MIC [17] was 4 µg/mL (≈ 10.8 µM). For the same compound, the MIC [18] was 4 µg/mL (≈ 10.8 µM), the MIC [19] was 4 µg/mL (≈ 10.8 µM) and the MIC [20] was 4 µg/mL (≈ 10.8 µM).
COc1ccc(-c2nnc(C)o2)cc1 showed an MIC [21] of 25 µg/mL (≈ 131 µM).
With CCn1cc(C(=O)O)c(=O)c2cc(F)c(N3CCN(Cc4nnc(-c5ccccc5Cl)o4)CC3)cc21 the MIC [22] was 1 µg/mL (≈ 1.95 µM), the MIC [23] was 0.5 µg/mL (≈ 0.977 µM) and the MIC [24] was 1 µg/mL (≈ 1.95 µM).
With Cc1cc(C(=O)Nc2nnc(-c3ccc(C(F)(F)F)cc3)o2)ccc1S(=O)(=O)N1C[C@H](C)C[C@H](C)C1 the MIC [25] was 11 µg/mL (≈ 21.1 µM).
With Cn1c(-c2nnc(-c3ccc(Cl)cc3Cl)o2)cc(Br)c1Br the Ratio [26] was 4 and the MIC [27] was 0.78 µg/mL (≈ 1.73 µM).
In the case of CCn1cc(C(=O)O)c(=O)c2cc(F)c(N3CCN(Cc4nnc(-c5ccc(F)cc5Cl)o4)CC3)cc21, the MIC [22] is reported as 1 µg/mL (≈ 1.89 µM), the MIC [23] is reported as 1 µg/mL (≈ 1.89 µM) and the MIC [24] is reported as 1 µg/mL (≈ 1.89 µM).
For C=C(C)C(=O)OCC[N+](C)(C)Cc1nnc(CCCCc2nnc(C[N+](C)(C)CCOC(=O)C(=C)C)o2)o1.[Cl-].[Cl-], the MIC [28] was 0.98 µg/mL.
With O=C(Nc1nnc(-c2ccc(F)cc2)o1)c1ccc(Cl)cc1 the MIC [29] was 0.64 µg/mL (≈ 2.01 µM), the MIC [30] was 1.28 µg/mL (≈ 4.03 µM) and the MIC [31] was 1.28 µg/mL (≈ 4.03 µM).
In the case of C[C@@H]1C[C@H](C)CN(S(=O)(=O)c2ccc(C(=O)Nc3nnc(-c4ccc(C(F)(F)F)cc4)o3)cc2)C1, the MIC [25] is reported as 0.25 µg/mL (≈ 0.492 µM).
Nc1scc(-c2ccc(F)cc2)c1-c1nnc(S)o1 showed an MIC [32] of 8 µg/mL (≈ 27.3 µM).
In the case of CCCCC(=O)Nc1nnc(-c2ccc(Cl)cc2)o1, the MBC [4] is reported as 8 µg/mL (≈ 28.6 µM) and the MBC [5] is reported as 64 µg/mL (≈ 229 µM).
With Cc1nc(-c2ccc3ccccc3c2)sc1-c1nnc(NC(=N)N2CCNCC2)o1 the MIC [33] was 1.95 µg/mL (≈ 4.65 µM).
GENTAMICIN showed an MIC [28] of 100 µg/mL.
For C=C(C)C(=O)OCC[N+](CC)(CC)Cc1nnc(CCCCc2nnc(C[N+](CC)(CC)CCOC(=O)C(=C)C)o2)o1.[Cl-].[Cl-], the MIC [28] was 0.98 µg/mL.
With O=C(/C=C/c1cccc([N+](=O)[O-])c1)N1N=C(c2ccncc2)OC1c1cn(-c2ccccc2)nc1-c1ccc(F)cc1 (stereo not drawn) the MIC [1] was > 50 µg/mL.
Compound Cc1nc(-c2ccc3ccccc3c2)sc1-c1nnc(N2CC(O)C2)o1 has an MIC [33] of 3.9 µg/mL (≈ 10.7 µM).
